# Experimental data from US9351988B2, “Macrocyclic lactones and use thereof” (UNIVERSITE DE GENEVE, priority 2011, dated 2016).
# Key:
# [1] = tested on: Human colon adenocarcinoma cell line (LS174T); experiment: BrdU incorporation proliferation assay in LS174T cells; type: cell-based; settings: 48 h
# Description: (§1) Human colon adenocarcinoma cell line (LS174T), human primary colon cancer cells (CC14) and primary metastatic cells (mCC11) were treated with Avermectin B1 (MicroSource Discovery systems, CT, USA), 5 μM. Control cells were treated with equivalent concentration of DMSO. 48 h after treatment, the percentage of BrdU incorporation was calculated for cells treated with Avermectin B1 as compared to control cells as follows: the number of BrdU positive cells over total number of cells expressed as percentage compared to control cells treated with DMSO only. Cells were cultivated in standard conditions (37° C., 5% CO2) in DMEM containing 10% Fetal Calf Serum.
# The same assay as described in Example 1 was carried out on human colon adenocarcinoma cell line LS174T where cell samples were either treated with Abamectin (Sigma #31732) or Doramectin (Sigma #33993) at three different concentrations: 0.1, 1 and 5 μM. Control cells were treated with equivalent concentration of DMSO. 48 h after treatment, the percentage of BrdU incorporation was calculated for cells treated with each macrocyclic lactone as compared to control cells as described above.
# (§2) The same assay as described in Example 1 was carried out on human primary colon cancer cells (CC14 and CC36) (TNM IV and III, respectively) and primary metastatic cells (mCC11) from the liver of the patient, on the human adenocarcinoma cell lines DLD1, LS174T, and SW180 and on human skin melanoma cell lines MeWo and SKMel2 where cell samples were treated with Ivermectin (Fabron Iberica S.A.U) or Stromectol™ (Merck & Co. Inc.) which is an oral pharmaceutical formulation of semisynthetic Ivermectin (mixture containing at least 90% 5-O-demethyl-22,23-dihydroavermectin A1a and less than 10% 5-O-demethyl-25-de(1-methylpropyl)-22,23-dihydro-25-(1-methylethyl)avermectin A1a, generally referred to as 22,23-dihydroavermectin B1a and B1b, or H2B1a and H2B1b) at different concentrations: 0.5, 1, 2.5, 5 and 10 μM (Ivermectin diluted in DMSO, Stromectol in Ethanol). Control cells were treated with equivalent concentrations of DMSO. 48 h after treatment the level of BrdU incorporation was calculated for cells treated with each macrocyclic lactone as compared to control cells as described above. IC50 values are calculated by interpolation from a dose response curve fitted using PRISM (Graphpad Software).
# [2] = tested on: human primary colon cancer cells (CC14); experiment: BrdU incorporation proliferation assay in CC14 cells; type: cell-based; settings: 48 h
# Description: as §1
# (§3) The same assay as described in Example 1 was carried out on human primary colon cancer cells (CC14 and CC36) (TNM IV and III, respectively) and primary metastatic cells (mCC11) from the liver of the patient where cell samples were treated with Abamectin (Sigma #31732) at three different concentrations: 0.1, 1 and 5 μM. Control cells were treated with equivalent concentrations of DMSO. 48 h after treatment the level of BrdU incorporation was calculated for cells treated with each macrocyclic lactone as compared to control cells as described above.
# as §2, with “Control cells were treated with equivalent concentrations of DMSO. 48 h after treatment the level of BrdU incorporation was calculated for cells treated with each macrocyclic lactone as compared to control cells as described above. IC50 values are calculated by interpolation from a dose response curve fitted using PRISM (Graphpad Software).” left out
# Wnt pathway = experiment: Key Wnt target gene expression by quantitative real time PCR in LS174 cells; type: cell-based, human; settings: 12 h after 5 μM Avermectin B1 (vs DMSO) or dnTCF4 expression (vs control plasmid)
# Description: Key Wnt target gene expression was determined by quantitative real time PCR in LS174 colon adenocarcinoma cell line expressing a dominant negative TCF4 cDNA (dnTCF4) or 12 h after treatment with 5 μM Avermectin B1 (MicroSource Discovery systems, CT, USA). Control cell samples were treated with equivalent concentrations of DMSO. Cells were cultivated in standard conditions as described in Example 1.
# Expression levels of individual genes are shown as a percentage compared to their expression levels in control cells treated with DMSO only in the case of Avermectin B1, or transfected with control plasmid in the case of dnTCF4, and are shown in Table 1 below: […]
# [3] = tested on: primary metastatic cells (mCC11); experiment: BrdU incorporation proliferation assay in mCC11 cells; type: cell-based, human; settings: 48 h
# Description: as §1, §3
# as §2, with “Control cells were treated with equivalent concentrations of DMSO. 48 h after treatment the level of BrdU incorporation was calculated for cells treated with each macrocyclic lactone as compared to control cells as described above. IC50 values are calculated by interpolation from a dose response curve fitted using PRISM (Graphpad Software).” left out
# [4] = tested on: human skin melanoma cell line MeWo; experiment: BrdU incorporation proliferation assay in MeWo cells; type: cell-based; settings: MeWo, 0.5, 1, 2.5, 5 and 10 μM, 48 h
# Description: as §1, with “Serum. […]” for “Serum.”
# [5] = tested on: human skin melanoma cell line SKMel2; experiment: BrdU incorporation proliferation assay in SKMel2 cells; type: cell-based; settings: SKMel2, 0.5, 1, 2.5, 5 and 10 μM, 48 h
# Description: as §1, with “Serum. […]” for “Serum.”
# [6] = tested on: human adenocarcinoma cell line SW180; experiment: BrdU incorporation proliferation assay in SW180 cells; type: cell-based; settings: SW180, 0.5, 1, 2.5, 5 and 10 μM, 48 h
# Description: as §1, with “Serum. […]” for “Serum.”
# [7] = tested on: human primary colon cancer cells (CC36); experiment: BrdU incorporation proliferation assay in CC36 cells; type: cell-based; settings: 48 h
# Description: as §1
# as §3, with “above. […]” for “above.”
# [8] = tested on: human DLD1 CC cell xenografts; experiment: Mouse xenografts of human colon cancer (DLD1) cells; type: in vivo, nude NMRI mice; settings: DLD1 xenografts in nude mice, 10 mg/kg; comparable to dnTCF4 (transgenic Wnt inhibition)
# Description: Six- to eight-week-old female nude NMRI (Naval Medical Research Institute) mice each receive two injections of 10^5-10^6 human DLD1 CC cells on their backs as independent subcutaneous xenografts. As soon as the tumor is palpable (1-2 mm) (usually 7-10 days following xenograft), a range of concentrations of Ivermectin (Fabron Iberica S.A.U) or Abamectin (Sigma #31732) (0 (excipient only), 10, 50 and 100 mg/kg/day) is given by oral gavage combined with corn oil or is administered intra-peritoneally (IP) combined with 2-hydroxypropyl-β-cyclodextrin (Sigma, 45% solution) in a second set of experiments. Tumor size is periodically measured with a caliper. Mice are sacrificed before the tumors approach the legal size limit and the tumors are removed and analysed for proliferation (BrdU assay), apoptosis (Caspase3 assay, Varnat et al., 2009, EMBO Mol. Med., 1, 338-351) and invasion (Varnat et al., 2010, above). Control mice are treated with carrier-only control cells, or cells expressing a dominant-negative TCF4 construct (dnTCF4), which acts to actively repress Wnt-TCF signalling.
# [9] = tested on: human adenocarcinoma cell line DLD1; experiment: BrdU incorporation proliferation assay in DLD1 cells; type: cell-based; settings: DLD1, 0.5, 1, 2.5, 5 and 10 μM, 48 h
# Description: as §1, with “Serum. […]” for “Serum.”
# [10] = tested on: human glioblastoma cancer cell lines and cells from primary human glioblastoma tumors; experiment: BrdU incorporation proliferation assay in glioblastoma cells; type: cell-based; settings: 48 h
molecule,measurement,setting,value
Avermectin B1,proliferation (percentage of BrdU incorporation compared to DMSO control),"[1]; LS174T, 5 μM",decreases to a minimum of half the proliferation
same,proliferation (percentage of BrdU incorporation compared to DMSO control),"[2]; CC14, 5 μM",decreases to a minimum of half the proliferation
same,AXIN2 expression level as percentage compared to control cells,Wnt pathway,62%
same,C-MYC expression level as percentage compared to control cells,Wnt pathway,35%
same,EPHB2 expression level as percentage compared to control cells,Wnt pathway,78%
same,EPHB3 expression level as percentage compared to control cells,Wnt pathway,55%
same,EPNB1 expression level as percentage compared to control cells,Wnt pathway,277%
same,LGR5 expression level as percentage compared to control cells,Wnt pathway,3%
same,P21 expression level as percentage compared to control cells,Wnt pathway,635%
same,proliferation (percentage of BrdU incorporation compared to DMSO control),"[3]; mCC11, 5 μM",decreases to a minimum of half the proliferation
Ivermectin,"proliferation (BrdU incorporation), dose-effect","[1]; LS174T, 0.5, 1, 2.5, 5 and 10 μM",decreases proliferation in a dose-dependent manner
same,"proliferation (BrdU incorporation), dose-effect",[4],decreases proliferation in a dose-dependent manner
same,"proliferation (BrdU incorporation), dose-effect","[2]; CC14, 0.5, 1, 2.5, 5 and 10 μM",decreases proliferation in a dose-dependent manner
same,"proliferation (BrdU incorporation), dose-effect",[5],decreases proliferation in a dose-dependent manner
same,"proliferation (BrdU incorporation), dose-effect",[6],decreases proliferation in a dose-dependent manner
same,"proliferation (BrdU incorporation), dose-effect","[7]; CC36, 0.5, 1, 2.5, 5 and 10 μM",decreases proliferation in a dose-dependent manner
same,colon cancer xenograft growth,[8],able to inhibit colon cancer xenograft growth
same,"proliferation (BrdU incorporation), dose-effect",[9],decreases proliferation in a dose-dependent manner
same,"proliferation (BrdU incorporation), dose-effect","[3]; mCC11, 0.5, 1, 2.5, 5 and 10 μM",decreases proliferation in a dose-dependent manner
same,"proliferation (BrdU incorporation), dose-effect",[10],decreases proliferation in a dose-dependent manner
Abamectin,"proliferation (BrdU incorporation), dose-effect","[1]; LS174T, 0.1, 1 and 5 μM",decreases proliferation in a dose-dependent manner
same,"proliferation (BrdU incorporation), dose-effect","[2]; CC14, 0.1, 1 and 5 μM",decreases proliferation in a dose-dependent manner
same,"proliferation (BrdU incorporation), dose-effect","[7]; CC36, 0.1, 1 and 5 μM",decreases proliferation in a dose-dependent manner
same,"proliferation (BrdU incorporation), dose-effect","[3]; mCC11, 0.1, 1 and 5 μM",decreases proliferation in a dose-dependent manner
"CO[C@H]1C[C@H](O[C@H]2[C@H](C)O[C@@H](O[C@@H]3/C(C)=C/C[C@@H]4C[C@@H](C[C@]5(C=C[C@H](C)[C@@H](C6CCCCC6)O5)O4)OC(=O)[C@@H]4C=C(C)[C@@H](O)[C@H]5OC/C(=C\C=C\[C@@H]3C)[C@]54O)C[C@@H]2OC)O[C@@H](C)[C@@H]1O [Doramectin, 25-cyclohexyl-5-O-demethyl-25-de(1-methylpropyl)avermectin A1a]","proliferation (BrdU incorporation), dose-effect","[1]; LS174T, 0.1, 1 and 5 μM",decreases proliferation in a dose-dependent manner
